Entries after “also recorded” stand apart in the source; their conditions may differ.
Experiments:
[1] = system: cisplatin-induced nephrotoxicity in Wistar-Kyoto (WKY) rats; assay: Cisplatin-induced nephrotoxicity in rats; format: in vivo, rat
Description: Experiments were approved and carried out according to the guidelines of the Institutional Animal Care and Use Committee, Medical College of Wisconsin, Milwaukee, USA. Male Wistar-Kyoto (WKY) rats weighing 180-200 g (Charles River, Mass., USA). All animals were kept in a temperature-controlled environment with a 12-h light/dark cycle and were allowed free access to food and water at all times. An acclimatization period of 6 days was allowed for the rats before experimentation. The rats were assigned into four groups. […] Rats received drinking water ad libitum for seven days and on day 7 DMSO (Sigma Aldrich, St. Louis, Mo., USA) was administered (300-500 μl i.p.). […] These rats are pretreated with the EET analog […].) for seven days in drinking water and then on day 7 administered CP as a single injection (7 mg/kg i.p.) followed by another five days treatment with EET-A. […] One day before the rats were sacrificed, urine of each rat was collected over a 24-h period, and the volume was measured. Five days after CP or DMSO administration, rats were anesthetized for blood sample collection followed by euthanasia and tissue collection. Urine and plasma samples were kept frozen at -80° C. until analyzed. The kidneys were removed, washed with physiological saline and stored at -80° C. until used for RT-PCR analysis, thiobarbituric acid reactive substance (TBARS) measurement and caspase 3 activity assay. […] The levels of blood urea nitrogen (BUN) (BioAssay Systems, Hayward, Calif., USA) and serum creatinine (Cayman Chemical Company, Ann Arbor, Mich., USA) were measured spectrophotometrically using commercial kits. Urinary content of creatinine and protein were measured using commercial kits (Cayman Chemical Company, Ann Arbor, Mich., USA), and the activity of urinary N-acetyl-b-glucosaminidase (NAG) in the urine was measured by a kit from Diazyme (Diazyme Laboratories, Poway, Calif., USA). While urine content of kidney injury molecule-1 (KIM-1) was measured using ELISA (R&D Systems, Inc. Minneapolis, Minn., USA). Malondialdehyde (MDA) is a thiobarbituric acid reactive substance (TBARS) that is formed as an end-product of lipid peroxidation and serves as an important index of oxidative stress. […] Using a commercially available kit (Cayman Chemical Company, Ann Arbor, Mich., USA), MDA was measured spectrophotometrically after reaction with thiobarbituric acid. […] Louis, Mo., USA). Kidney homogenate was prepared with a lysis Buffer (50 mM HEPES, pH 7.4, with 5 mM CHAPS and 5 mM DTT). […] The caspase 3 activity is expressed as nmol of AMC/min/μL. Real-Time analysis was carried out to assess the expression of oxidative (gp91phox, NOX1, SOD1, SOD2, SOD3), inflammatory (TNF-α, IL-6, apoptotic (Bax, Bak, Bcl-2) and endoplasmic reticulum stress (GRP78, caspase 12) related genes in the kidney. Total RNA was isolated from kidney homogenate using TRIzol LS reagents (Invitrogen Life Technologies, Carlsbad, Calif., USA) according to the manufacturer's instructions. The isolated RNA was treated with RNase-free DNase (Invitrogen, Carlsbad, Calif., USA) to remove traces of genomic DNA contamination. The mRNA samples were quantified by spectrophotometry at 260 nm and 1 μg of total RNA was reverse-transcribed to cDNA using iScriptTM Select cDNA Synthesis Kit (Bio-Rad, Hercules, Calif., USA). The target gene expression was quantified by iScript One-Step RT-PCR Kit with SYBR green using MyiQTM Single Color Real-Time PCR Detection System (Bio-Rad Laboratories, Hercules, Calif., USA). Each amplified sample in all wells was analyzed for homogeneity using dissociation curve analysis using iQ5 Optical System Software, Version 2.1 (Bio-Rad Laboratories, Hercules, Calif., USA). […] In analyzing the relative expression of the target genes, the Ct values were normalized to a housekeeping gene (pgk1). Statistical analyses were carried out for at least 5-7 experimental samples in each experimental group. Primers used in this study were designed based on several earlier reports. […]

[2] = system: Hela, NCCIT and U87 cancer cell lines; assay: Cell viability by alamar blue assay in cancer cell lines; format: cell-based, human; conditions: 72 h
Procedure: (§1) In this study, HEK293, U87MG, Hela cell-lines were obtained from the ATCC (Manassas, Va., USA) (HEK293, U87MG, Hela), and NCCIT was collected from Department of Pediatrics, UT Southwestern Medical Center at Dallas, Tex., USA. All cell lines were maintained in DMEM or RPIM with 10% fetal bovine serum and penicillin/streptomycin purchased from Life Technologies (Grand Island, N.Y., USA). Cisplatin was purchased from either Sigma (St. Louis, Mo., USA) or CalBiochem/EMD Biosciences (Billerica, Mass., USA). Cells were seeded in 96-well plates at 500 to 4,000 cells per well depends on cell type. […] Cell viability was measured by alamar blue assay using resazurin (Sigma Aldrich) according to the manufacturer's guidelines. Viability results were measured by fluorescence/absorbance in a 96-well plate reader from BMG Labtech (Cary, N.C., USA) and the IC50 was calculated by GraphPad Prism5 software (GraphPad Software Inc, La Jolla, Calif., USA).

NCCIT cells = assay: Cell viability by alamar blue assay, cisplatin with concurrent EET-A; format: cell-based, human; conditions: concurrent application of EET-A and cisplatin; NCCIT cancer cell line
Procedure: as §1

## Disodium (S)-2-(13-(3-pentylureido)tridec-8(Z)-enamido)succinate [EET-A]
[1]; 10 mg/kg/d p.o., cisplatin 7 mg/kg i.p., day 5 after cisplatin, vehicle 241±51
  BUN: 108 ± 30 mg/dL
[1]; 10 mg/kg/d p.o., day 5 after cisplatin, vehicle 3.1±0.2
  plasma creatinine (PCr): 2.0 ± 0.2 mg/dL
[1]; 10 mg/kg/d p.o., vehicle 16±2
  kidney TBARS formation: 7 ± 1 µmol/g
[1]; cisplatin-administered rats
  reductions in renal mRNA expressions of inflammatory markers (TNF-α, IL-6, interleukin-1β): 40-60%
[1]; cisplatin-administered rats, vehicle 53±5
  proteinuria: 33 ± 8 mg/day
[1]; five days after cisplatin, vs. vehicle
  reductions in the elevated levels of serum creatinine and BUN: 30-50%
[1]; urinary, 10 mg/kg/d p.o., vehicle 3.0±0.6
  NAG: 0.5±0.1 U/d
[1]; urinary, 10 mg/kg/d p.o., vehicle 296±94
  KIM-1: 85 ± 29 ng/day
[1]; vs. cisplatin rats treated with vehicle
  reduction in urinary excretion of NAG and KIM-1: 30-50%
[1]; vs. vehicle
  reduction of cisplatin-induced proteinuria: ≥ 40%
[1]; vs. vehicle treatment
  reduction in elevated renal expressions of GRP78 and caspase 12 mRNAs: 2-4 fold
[1]; vs. vehicle-treated cisplatin rats
  decrease in kidney expression of NOX1 and gp91phox mRNAs: 2-3 folds
[2]
  effect on cell number / growth: no observable effects; also recorded: no effect
NCCIT cells
  influence on cisplatin's chemotherapeutic effect: did not influence

Reference: patent US9422318B2, “Epoxyeicosatrienoic acid analogs and methods of making and using the same” (THE MEDICAL COLLEGE OF WISCONSIN, INC., priority 2011, dated 2016)
